Measurements as given in ChEMBL document CHEMBL1201862, “PubChem BioAssay data set” (2004).
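All cell lines were grown in 96-well plates and treated with compound for 48 hours. The concentration for 50% growth inhibition is given as GI50.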 Calls of active or inactive are those of the source. Rule as the data show it: active = GI50 up to about 1.1 µM and inactive = higher.

What was measured:
Test in all cases: DTP human tumour cell line panel, 48 h
786-0 = tested on: 786-0
A549 = tested on: A549
HL-60 = tested on: HL-60
Hs-578T = tested on: Hs-578T
K562 = tested on: K562
KM12 = tested on: KM12
LOX IMVI = tested on: LOX IMVI
MOLT-4 = tested on: MOLT-4
NCI-H226 = tested on: NCI-H226
OVCAR-5 = tested on: OVCAR-5
OVCAR-8 = tested on: OVCAR-8
RXF 393 = tested on: RXF 393
SK-MEL-28 = tested on: SK-MEL-28
SK-MEL-2 = tested on: SK-MEL-2
SK-MEL-5 = tested on: SK-MEL-5
SNB-19 = tested on: SNB-19
TK-10 = tested on: TK-10
U-251 = tested on: U-251
UACC-62 = tested on: UACC-62
SNB-75 = tested on: SNB-75

Measured: GI50

CC(=O)NC(Cc1ccc(O)cc1)C(=O)O (centres undefined)
inactive: 786-0 > 100 µM | A549 > 100 µM | HL-60 > 100 µM | Hs-578T > 100 µM | K562 > 100 µM | KM12 > 100 µM | LOX IMVI > 100 µM | MOLT-4 > 100 µM | NCI-H226 > 100 µM | OVCAR-5 > 100 µM | OVCAR-8 > 100 µM | RXF 393 > 100 µM | SK-MEL-28 > 100 µM | SK-MEL-2 > 100 µM | SK-MEL-5 > 100 µM | SNB-19 > 100 µM | TK-10 > 100 µM | U-251 > 100 µM | UACC-62 > 100 µM

Cc1ccccc1/N=N/c1ccc(/N=N/c2c(O)ccc3cc(S(=O)(=O)O)cc(S(=O)(=O)O)c23)c(C)c1
inactive: 786-0 > 100 µM | A549 > 100 µM | HL-60 > 100 µM | Hs-578T > 100 µM | K562 > 100 µM | KM12 > 100 µM | MOLT-4 > 100 µM | NCI-H226 > 100 µM | OVCAR-5 > 100 µM | OVCAR-8 > 100 µM | RXF 393 > 100 µM | SK-MEL-28 > 100 µM | SK-MEL-2 > 100 µM | SK-MEL-5 > 100 µM | SNB-19 > 100 µM | SNB-75 > 100 µM | TK-10 > 100 µM | U-251 > 100 µM | UACC-62 > 100 µM

CC1CN(c2cc3c(cc2F)c(=O)c(C(=O)O)cn3-c2ccc(N3CCN(C)CC3)cn2)CC(C)N1 (centres undefined)
inactive: 786-0 > 100 µM | A549 > 100 µM | HL-60 > 100 µM | Hs-578T > 100 µM | K562 65.6 µM | KM12 87.5 µM | MOLT-4 99.5 µM | NCI-H226 > 100 µM | OVCAR-5 > 100 µM | OVCAR-8 44.5 µM | RXF 393 > 100 µM | SK-MEL-28 > 100 µM | SNB-19 70 µM | SNB-75 > 100 µM | TK-10 > 100 µM | U-251 70.5 µM | UACC-62 > 100 µM

O=C1c2ccccc2-c2nnc3c(c21)-c1ccccc1C3
inactive: 786-0 > 100 µM | A549 62.7 µM | HL-60 60.5 µM | Hs-578T > 100 µM | KM12 > 100 µM | MOLT-4 24.5 µM | NCI-H226 43.5 µM | OVCAR-5 > 100 µM | OVCAR-8 44.2 µM | RXF 393 > 100 µM | SK-MEL-2 > 100 µM | SK-MEL-5 66.8 µM | SNB-19 39 µM | SNB-75 76 µM | U-251 67 µM | UACC-62 37.6 µM

Cc1ccc(S(=O)(=O)NNC(=S)Nc2cccc3ccccc23)cc1
inactive: 786-0 14.2 µM | A549 49.4 µM | HL-60 28.3 µM | Hs-578T 97.5 µM | K562 35.5 µM | KM12 23.4 µM | MOLT-4 38.1 µM | NCI-H226 29.4 µM | OVCAR-5 89.3 µM | OVCAR-8 37.5 µM | RXF 393 85.9 µM | SK-MEL-28 54.1 µM | SK-MEL-2 4.45 µM | SK-MEL-5 17.8 µM | SNB-19 68.1 µM | SNB-75 27.9 µM | TK-10 53.7 µM | U-251 40.6 µM | UACC-62 32.1 µM

O=c1cc(-c2ccc(O)cc2)oc2cc(O[C@@H]3O[C@H](CO)[C@@H](O)[C@H](O)[C@H]3O)cc(O)c12 [APIGETRIN]
inactive: 786-0 > 100 µM | A549 51.3 µM | HL-60 80.5 µM | Hs-578T 40 µM | K562 77.8 µM | KM12 13.9 µM | LOX IMVI 33.1 µM | MOLT-4 32.5 µM | NCI-H226 26.7 µM | OVCAR-5 > 100 µM | OVCAR-8 31.7 µM | SK-MEL-28 98.4 µM | SK-MEL-2 61.5 µM | SK-MEL-5 46 µM | SNB-19 39.4 µM | SNB-75 40.8 µM | TK-10 > 100 µM | U-251 71 µM | UACC-62 43.3 µM
